Test results taken from US10441578B2, “Altering expression level of glutathione S-transferase genes by treating a human subject with a nitroxide” (priority 2018, dated 2019).

What was measured:
Type in all cases: in vivo
[1] = test system: Glutathione S-transferase kappa1 (Gstk1); assay: Microarray gene expression in white adipose tissue of Tempol-fed mice
Description: (§1) To assess the effects of Tempol on gene expression, Tempol was administered to experimental mice at a dose of 5 mg/g of food from 14 months to 31 months after birth. Mice receiving the same food without the addition of Tempol were used as a negative control. At the age of 31 months, the experimental animals were sacrificed and the hearts were surgically removed. The expression of a broad spectrum of genes in white adipose tissue tissue was assessed using chip-based microarray technology. Such chips are well known in the art and are widely used to assess gene expression.

[2] = test system: Glutathione S-transferase, alpha 3 (Gsta3); assay: as above
Description: as §1

[3] = test system: Glutathione S-transferase, alpha 4 (Gsta4); assay: as above
Description: as §1

[4] = test system: Glutathione S-transferase, mu 1 (Gstm1); assay: as above
Description: as §1

[5] = test system: Glutathione S-transferase, mu 3 (Gstm3); assay: as above
Description: as §1

[6] = test system: Glutathione S-transferase, mu 4 (Gstm4); assay: as above
Description: as §1

[7] = test system: Glutathione S-transferase, mu 6 (Gstm6); assay: as above
Description: as §1

[8] = test system: Glutathione S-transferase, pi 1 (Gstp1); assay: as above
Description: as §1

[9] = test system: Glutathione S-transferase, theta 1 (Gstt1); assay: as above
Description: as §1

[10] = test system: Glutathione S-transferase, theta 2 (Gstt2); assay: as above
Description: as §1

[11] = test system: Gstm3, Gstm6, Gsta3, Gstt1, Gsta4, Gstm1, Gstm4, Gstt2, Gstp1, or Gstk1; assay: Treatment of a human subject with a nitroxide antioxidant, serum level of GST; conditions: 1500 mg per day for 180 days
Description: (§2) A 70-kilogram human subject over the age of 65 is identified for decreased expression level of Gstm3, Gstm6, Gsta3, Gstt1, Gsta4, Gstm1, Gstm4, Gstt2, Gstp1, or Gstk1. The human subject is administered a dose of 1500 mg of a nitroxide antioxidant (e.g., Tempol) per day for 180 days. This may be administered in a single dose, or may be administered as a number of smaller doses over a 24-hour period: for example, three 500-mg doses at eight-hour intervals. Following treatment, the serum level of Gstm3, Gstm6, Gsta3, Gstt1, Gsta4, Gstm1, Gstm4, Gstt2, Gstp1, or Gstk1, is increased.
as §2, with “65 and having a cardiovascular disease” for “65”
(§3) A 70-kilogram human subject is identified for decreased expression level of Gstm3, Gstm6, Gsta3, Gstt1, Gsta4, Gstm1, Gstm4, Gstt2, Gstp1, or Gstk1. The human subject is administered a dose of 1500 mg of a nitroxide antioxidant (e.g., Tempol) per day for 180 days. This may be administered in a single dose, or may be administered as a number of smaller doses over a 24-hour period: for example, three 500-mg doses at eight-hour intervals. Following treatment, the serum level of Gstm3, Gstm6, Gsta3, Gstt1, Gsta4, Gstm1, Gstm4, Gstt2, Gstp1, or Gstk1, is increased.
as §3, with “Gstk1 that is associated with a disease (e.g., caused by or causing a disease).” for “Gstk1.”
as §3, with “human subject at risk of developing a cancer (e.g., colorectal cancer) or having a cancer is identified” for “human subject is identified”
as §3, with “human subject at risk of developing or having an autoimmune disease (e.g., rheumatoid arthritis) is identified” for “human subject is identified”
A 70-kilogram human subject of person at risk of developing, or having, a condition due to aging is identified. The human subject is administered a dose of 1500 mg of a nitroxide antioxidant (e.g., Tempol) per day for 180 days. […]

[12] = Tempol-treated vs control mice, microarray
[13] = Tempol-treated vs control mice, P-value 0.003
[14] = Tempol-treated vs control mice, P-value 0.001

CC1(C)CC(O)CC(C)(C)N1[O] [Tempol, 4-hydroxy-2,2,6,6-tetramethylpiperidine-1-oxyl]
Expression, Tempol-treated mice ([1]; Tempol 5 mg/g of food from 14 to 31 months after birth, microarray, control mice 1140): 1325
Fold change ([1]; Tempol-treated vs control mice, P-value 0.015): 1.16
Change in expression (in words) [1, 12]: statistically significant increase in expression
Expression, Tempol-treated mice ([2]; Tempol 5 mg/g of food from 14 to 31 months after birth, microarray, control mice 668): 1183
Fold change ([2]; Tempol-treated vs control mice, P-value 0.004): 1.77
Change in expression (in words) [2, 12]: statistically significant increase in expression
Expression, Tempol-treated mice ([3]; Tempol 5 mg/g of food from 14 to 31 months after birth, microarray, control mice 195): 284
Fold change ([3]; Tempol-treated vs control mice, P-value 0.006): 1.45
Change in expression (in words) [3, 12]: statistically significant increase in expression
Expression, Tempol-treated mice ([4]; Tempol 5 mg/g of food from 14 to 31 months after birth, microarray, control mice 6291): 8548
Fold change [4, 13]: 1.36
Change in expression (in words) [4, 12]: statistically significant increase in expression
Expression, Tempol-treated mice ([5]; Tempol 5 mg/g of food from 14 to 31 months after birth, microarray, control mice 10): 74
Fold change [5, 14]: 7.52
Change in expression (in words) [5, 12]: statistically significant increase in expression
Expression, Tempol-treated mice ([6]; Tempol 5 mg/g of food from 14 to 31 months after birth, microarray, control mice 416): 533
Fold change [6, 13]: 1.28
Change in expression (in words) [6, 12]: statistically significant increase in expression
Expression, Tempol-treated mice ([7]; Tempol 5 mg/g of food from 14 to 31 months after birth, microarray, control mice 147): 265
Fold change ([7]; Tempol-treated vs control mice, P-value 0.034): 1.8
Change in expression (in words) [7, 12]: statistically significant increase in expression
Expression, Tempol-treated mice ([8]; Tempol 5 mg/g of food from 14 to 31 months after birth, microarray, control mice 5711): 6812
Fold change ([8]; Tempol-treated vs control mice, P-value 0.005): 1.19
Change in expression (in words) [8, 12]: statistically significant increase in expression
Expression, Tempol-treated mice ([9]; Tempol 5 mg/g of food from 14 to 31 months after birth, microarray, control mice 1017): 1619
Fold change [9, 14]: 1.59
Change in expression (in words) [9, 12]: statistically significant increase in expression
Expression, Tempol-treated mice ([10]; Tempol 5 mg/g of food from 14 to 31 months after birth, microarray, control mice 446): 546
Fold change ([10]; Tempol-treated vs control mice, P-value 0.035): 1.22
Change in expression (in words) [10, 12]: statistically significant increase in expression
Serum level of GST following treatment ([11]; Example 2: human subject over the age of 65 with decreased expression): increased
Serum level of GST following treatment ([11]; Example 3: human subject over the age of 65 having a cardiovascular disease): increased
Serum level of GST following treatment ([11]; Example 4: human subject with decreased expression level): increased
Serum level of GST following treatment ([11]; Example 5: decreased expression associated with a disease): increased
Serum level of GST following treatment ([11]; Example 6: human subject at risk of developing or having a cancer): increased
Serum level of GST following treatment ([11]; Example 7: human subject at risk of developing or having an autoimmune disease): increased
Serum level of GST following treatment ([11]; Example 8: human subject, condition due to aging): increased
Serum level of GST following treatment ([11]; Example 9: human subject at risk of developing or having a neurodegenerative disease): increased
Serum level of GST following treatment ([11]; Example 10: human subject having an infection): increased
